# Assay results reported in ChEMBL document CHEMBL1122453, “Structure-activity relationships in the antiinflammatory steroids: a pattern-recognition approach” (1983).
# Species on record: Homo sapiens
# Assay: Potency relative to fluocinolone 16,17-acetonide in the human vasoconstictor test
# Type: functional
row,Structure (SMILES),Potency
1,CC(=O)OCC(=O)[C@@]1(O)CC[C@H]2[C@@H]3CCC4=CC(=O)CC[C@]4(C)[C@@]3(F)[C@@H](O)C[C@@]21C [FLUDROCORTISONE ACETATE],1
2,C[C@]12C[C@H](O)[C@H]3[C@@H](CCC4=CC(=O)CC[C@@]43C)[C@@H]1CC[C@@H]2C(=O)CO [CORTICOSTERONE],0.3
3,CCCC(=O)O[C@]1(C(=O)CO)CC[C@H]2[C@@H]3CCC4=CC(=O)CC[C@]4(C)[C@H]3[C@@H](O)C[C@@]21C [HYDROCORTISONE BUTYRATE],50
4,C[C@H]1C[C@@H]2[C@H]([C@@H](O)C[C@@]3(C)[C@H]2CC[C@]3(O)C(=O)CO)[C@@]2(C)C=CC(=O)C=C12 (stereo in doubt) [METHYLPREDNISOLONE],0.1
5,C[C@]12C=CC(=O)C=C1CC[C@@H]1[C@@H]2[C@@H](O)C[C@@]2(C)[C@H]1CC[C@]2(O)C(=O)CO [PREDNISOLONE],0.1
6,C[C@@H]1C[C@H]2[C@@H]3CCC4=CC(=O)C=C[C@]4(C)[C@@]3(F)[C@@H](O)C[C@]2(C)[C@@]1(O)C(=O)CO [DEXAMETHASONE],1
7,C[C@]12C=CC(=O)C=C1CC[C@H]1[C@@H]3C[C@@H](O)[C@](O)(C(=O)CO)[C@@]3(C)C[C@H](O)[C@@]12F [TRIAMCINOLONE],0.01
8,CC(=O)OCC(=O)[C@@]1(O)CC[C@H]2[C@@H]3CCC4=CC(=O)CC[C@]4(C)[C@H]3[C@@H](O)C[C@@]21C [HYDROCORTISONE ACETATE],1
9,C[C@]12CCC(=O)C=C1CC[C@@H]1[C@@H]2[C@@H](O)C[C@@]2(C)[C@H]1CC[C@]2(O)C(=O)CO [HYDROCORTISONE],<1
10,CC1(C)O[C@@H]2C[C@H]3[C@@H]4CCC5=CC(=O)C=C[C@]5(C)[C@@]4(F)[C@@H](O)C[C@]3(C)[C@]2(C(=O)CO)O1 [TRIAMCINOLONE ACETONIDE],100
11,CCCC(=O)OCC(=O)[C@@]1(OC(=O)CC)CCC2C3C[C@H](F)C4=CC(=O)C=CC4(C)[C@@]3(F)C(O)CC21C (some centres not stated),1260
12,C[C@@H]1C[C@H]2[C@@H]3C[C@H](F)C4=CC(=O)C=C[C@]4(C)[C@@]3(F)[C@@H](O)C[C@]2(C)[C@@]1(O)C(=O)COC(=O)C(C)(C)C [FLUMETHASONE PIVALATE],360
13,CCCC(=O)OC1(C(=O)CCl)[C@@H](C)CC2C3CCC4=CC(=O)C=C[C@]4(C)[C@@]3(F)[C@@H](O)C[C@@]21C (some centres not stated),1166

# Species on record: Rattus norvegicus
# Assay: Anti-inflammatory effect in rat granuloma assay, activity relative to hydrocortisone and hydrocortisone 21-acetate
# Type: functional
row,Structure (SMILES),Potency
1,CC(=O)OCC(=O)[C@@]1(O)CC[C@H]2[C@@H]3CCC4=CC(=O)CC[C@]4(C)[C@@]3(F)[C@@H](O)C[C@@]21C [FLUDROCORTISONE ACETATE],7.3
2,C[C@@H]1CC2C3CCC4=CC(=O)C=CC4(C)C3[C@@H](O)CC2(C)C1C(=O)CO (some centres not stated),3
3,C[C@@H]1CC2C3CCC4=CC(=O)C=CC4(C)[C@@]3(Cl)C(O)CC2(C)[C@@]1(O)C(=O)CO (some centres not stated),60
4,CC(=O)OCC(=O)[C@@]1(O)CCC2C3CCC4=CC(=O)[C@H](C)CC4(C)C3C(O)CC21C (some centres not stated),4.5
5,CC(=O)OCC(=O)[C@@]1(O)CCC2C3C[C@H](F)C4=CC(=O)CCC4(C)[C@@]3(F)C(O)CC21C (some centres not stated),50
6,C[C@]12C[C@H](O)[C@H]3[C@@H](CCC4=CC(=O)CC[C@@]43C)[C@@H]1CC[C@@H]2C(=O)CO [CORTICOSTERONE],0.3
7,CC(=O)OCC(=O)C1CCC2C3CCC4=CC(=O)[C@H](C)CC4(C)C3C(O)CC12C (some centres not stated),0.3
8,CC(=O)OCC(=O)[C@@]1(O)[C@H](C)CC2C3C[C@H](F)C4=CC(=O)CCC4(C)[C@@]3(F)C(O)CC21C (some centres not stated),50
9,CC(=O)OCC(=O)[C@@]1(O)CCC2C3C[C@H](F)C4=CC(=O)C=CC4(C)[C@@]3(F)C(O)CC21C (some centres not stated),200
10,C[C@@H]1CC2C3CCC4=CC(=O)CCC4(C)[C@@]3(F)C(O)CC2(C)[C@@]1(O)C(=O)CO (some centres not stated),36
11,CCCC(=O)O[C@]1(C(=O)CO)CC[C@H]2[C@@H]3CCC4=CC(=O)CC[C@]4(C)[C@H]3[C@@H](O)C[C@@]21C [HYDROCORTISONE BUTYRATE],1
12,CC12CCC(=O)C=C1[C@@H](Cl)CC1C3CC(O)[C@](O)(C(=O)CO)C3(C)CC(O)[C@@]12F (some centres not stated),50
13,C[C@@H]1CC2C3CCC4=CC(=O)CCC4(C)C3C(O)CC2(C)[C@@]1(O)C(=O)CO (some centres not stated),1.4
14,CC(=O)OCC(=O)[C@@]1(O)CCC2C3C[C@H](Cl)C4=CC(=O)C=CC4(C)C3C(=O)CC21C (some centres not stated),4
15,CC(=O)OCC(=O)[C@@]1(O)[C@H](C)CC2C3C[C@H](F)C4=CC(=O)CCC4(C)C3C(O)CC21C (some centres not stated),5
16,CC12CCC(=O)C=C1[C@@H](F)CC1C3C[C@@H](O)[C@](O)(C(=O)CO)C3(C)CC(O)[C@@]12F (some centres not stated),15
17,CC(=O)OCC(=O)[C@@]1(O)CCC2C3CCC4=CC(=O)CCC4(C)[C@@]3(Cl)C(O)CC21C (some centres not stated),3.5
18,CC(=O)OCC(=O)[C@@]1(O)CCC2C3CCC4=CC(=O)[C@H](C)CC4(C)[C@@]3(F)C(O)CC21C (some centres not stated),9
19,CC(=O)OCC(=O)[C@@]1(O)CCC2C3C[C@H](F)C4=CC(=O)C=CC4(C)C3C(O)CC21C (some centres not stated),20
20,C[C@H]1C[C@@H]2[C@H]([C@@H](O)C[C@@]3(C)[C@H]2CC[C@]3(O)C(=O)CO)[C@@]2(C)C=CC(=O)C=C12 (stereo in doubt) [METHYLPREDNISOLONE],5
21,CC(=O)OCC(=O)C1CCC2C3CCC4=CC(=O)CCC4(C)[C@@]3(F)C(O)CC12C (some centres not stated),2.7
22,C[C@H]1C[C@@H]2[C@H]([C@@H](O)C[C@@]3(C)[C@H]2CC[C@]3(O)C(=O)CO)[C@@]2(C)C=CC(=O)C=C12 (stereo in doubt; 68) [METHYLPREDNISOLONE],200

row,Structure (SMILES),Potency
1,CC(=O)OCC(=O)[C@@]1(O)CCC2C3C[C@H](Cl)C4=CC(=O)CCC4(C)C3C(=O)CC21C (some centres not stated),1
2,CC12C=CC(=O)C=C1[C@@H](Cl)CC1C3CC(O)[C@](O)(C(=O)CO)C3(C)CC(O)[C@@]12F (some centres not stated),400
3,C[C@H]1CC2C3CCC4=CC(=O)CCC4(C)C3C(O)CC2(C)[C@@]1(O)C(=O)CO (some centres not stated),4
4,CC(=O)OCC(=O)[C@@]12OC(C)(C)O[C@@H]1CC1C3C[C@H](F)C4=CC(=O)CCC4(C)C3C(O)CC12C (some centres not stated),4
5,CC(=O)OCC(=O)[C@@]1(O)CCC2C3C[C@H](F)C4=CC(=O)CCC4(C)C3C(O)CC21C (some centres not stated),10
6,CC(=O)OCC(=O)C1CCC2C3CCC4=CC(=O)CCC4(C)C3C(O)CC12C (configuration not stated),0.3
7,CC(=O)OCC(=O)[C@@]1(O)CC[C@H]2[C@@H]3CCC4=CC(=O)C=C[C@]4(C)[C@H]3C(=O)C[C@@]21C,1
8,C[C@]12C=CC(=O)C=C1CC[C@@H]1[C@@H]2[C@@H](O)C[C@@]2(C)[C@H]1CC[C@]2(O)C(=O)CO [PREDNISOLONE],3
9,C[C@@H]1C[C@H]2[C@@H]3CCC4=CC(=O)C=C[C@]4(C)[C@@]3(F)[C@@H](O)C[C@]2(C)[C@@]1(O)C(=O)CO [DEXAMETHASONE],200
10,C[C@]12C=CC(=O)C=C1CC[C@H]1[C@@H]3C[C@@H](O)[C@](O)(C(=O)CO)[C@@]3(C)C[C@H](O)[C@@]12F [TRIAMCINOLONE],2.6
11,CC(=O)OCC(=O)[C@@]1(O)CCC2C3C[C@H](Cl)C4=CC(=O)C=CC4(C)[C@@]3(F)C(O)CC21C (some centres not stated),27
12,CC(=O)OCC(=O)[C@@]1(O)CC[C@H]2[C@@H]3CCC4=CC(=O)CC[C@]4(C)[C@H]3[C@@H](O)C[C@@]21C [HYDROCORTISONE ACETATE],1
13,C[C@]12CCC(=O)C=C1CC[C@@H]1[C@@H]2[C@@H](O)C[C@@]2(C)[C@H]1CC[C@]2(O)C(=O)CO [HYDROCORTISONE],1
14,CC(=O)OCC(=O)[C@@]1(O)CCC2C3CCC4=CC(=O)CCC4(C)[C@@]3(F)C(=O)CC21C (some centres not stated),10
15,CC(=O)OCC(=O)[C@@]1(O)CCC2C3C[C@H](F)C4=CC(=O)CCC4(C)C3C(=O)CC21C (some centres not stated),10
16,C[C@@H]1CC2(C)C(=CC1=O)CCC1C2C(=O)CC2(C)C1CC[C@]2(O)C(=O)CO (some centres not stated),<0.07
17,CC12C=CC(=O)C=C1CCC1C3CC[C@](O)(C(=O)CO)C3(C)CC(O)[C@@]12F (some centres not stated),17.7
18,CC12CCC(=O)C=C1[C@@H](F)CC1C2C(O)CC2(C)C1C[C@@H](O)[C@]2(O)C(=O)CO (some centres not stated),5
19,CC1(C)O[C@@H]2C[C@H]3[C@@H]4CCC5=CC(=O)C=C[C@]5(C)[C@@]4(F)[C@@H](O)C[C@]3(C)[C@]2(C(=O)CO)O1 [TRIAMCINOLONE ACETONIDE],49
20,C[C@]12CCC(=O)C=C1CC[C@@H]1[C@@H]2C(=O)C[C@@]2(C)[C@H]1CC[C@]2(O)C(=O)CO [CORTISONE],0.4
21,C[C@H]1CC2C3CCC4=CC(=O)CCC4(C)[C@@]3(F)C(O)CC2(C)[C@@]1(O)C(=O)CO (some centres not stated),23
22,CC(=O)OCC(=O)[C@@]1(O)CCC2C3C[C@H](Cl)C4=CC(=O)CCC4(C)[C@@]3(F)C(O)CC21C (some centres not stated),11

row,Structure (SMILES),Potency
1,C[C@H]1CC2C3CCC4=CC(=O)CCC4(C)C3C(=O)CC2(C)[C@@]1(O)C(=O)CO (some centres not stated),2
2,C[C@@H]1CC2C3CCC4=CC(=O)C=CC4(C)C3C(=O)CC2(C)[C@@]1(O)C(=O)CO (some centres not stated),13
3,CC(=O)OCC(=O)[C@@]1(O)[C@H](C)CC2C3C[C@H](F)C4=CC(=O)C=CC4(C)[C@@]3(F)C(O)CC21C (some centres not stated),120
4,CC(=O)OCC(=O)C1CCC2C3CCC4=CC(=O)[C@H](C)CC4(C)C3C(O)=CC12C (some centres not stated),<0.01
5,CC(=O)OCC(=O)[C@@]1(O)CCC2C3C[C@H](F)C4=CC(=O)C=CC4(C)C3C(=O)CC21C (some centres not stated),20
6,CC(=O)OCC(=O)[C@@]1(O)CCC2C3CCC4=CC(=O)C=CC4(C)[C@@]3(F)C(O)CC21C (some centres not stated),14
7,CC(=O)OCC(=O)[C@@]1(O)CCC2C3C[C@H](Cl)C4=CC(=O)CCC4(C)[C@@]3(F)C(=O)CC21C (some centres not stated),8
8,CC1(C)O[C@@H]2CC3C4C[C@H](F)C5=CC(=O)CCC5(C)[C@@]4(F)C(O)CC3(C)[C@]2(C(=O)CO)O1 (some centres not stated),103
9,C[C@H]1C[C@H]2[C@@H]3CCC4=CC(=O)C=C[C@]4(C)[C@H]3[C@@H](O)C[C@]2(C)[C@@]1(O)C(=O)CO,23
10,CC(=O)OCC(=O)C1CCC2C3CCC4=CC(=O)[C@H](C)CC4(C)[C@@]3(F)C(O)CC12C (some centres not stated),2.4
11,CC(=O)OCC(=O)[C@@]1(O)CCC2C3CCC4=CC(=O)C=CC4(C)[C@@]3(Cl)[C@@H](Cl)CC21C (some centres not stated),0.5
12,CC(=O)OCC(=O)[C@@]1(O)CC[C@H]2[C@@H]3CCC4=CC(=O)CC[C@]4(C)[C@H]3C(=O)C[C@@]21C [CORTISONE ACETATE],0.3
13,C[C@@H]1CC2C3CCC4=CC(=O)C=CC4(C)[C@@]3(F)C(O)=CC2(C)[C@@]1(O)C(=O)CO (some centres not stated),140
14,C[C@@H]1CC2C3C[C@H](C)C4=CC(=O)C=CC4(C)[C@@]3(F)C(O)CC2(C)[C@@]1(O)C(=O)CO (some centres not stated),200
15,CC(=O)OCC(=O)C1CCC2C3CCC4=CC(=O)CCC4(C)C3C(O)=CC12C (configuration not stated),0.2
16,CC12C=CC(=O)C=C1[C@@H](Cl)CC1C2C(O)CC2(C)C1CC[C@]2(O)C(=O)CO (some centres not stated),14
17,CC(=O)OCC(=O)[C@@]12OC(C)(C)O[C@@H]1CC1C3C[C@H](F)C4=CC(=O)C=CC4(C)C3C(O)CC12C (some centres not stated),20
18,C[C@@H]1C[C@H]2[C@@H]3CCC4=CC(=O)C=C[C@]4(C)[C@H]3[C@@H](O)C[C@]2(C)[C@@]1(O)C(=O)CO,11.3
19,C[C@H]1CC2C3CCC4=CC(=O)C=CC4(C)C3C(=O)CC2(C)[C@@]1(O)C(=O)CO (some centres not stated),26
20,CC(=O)OCC(=O)[C@@]1(O)CCC2C3C[C@H](Cl)C4=CC(=O)CCC4(C)C3C(O)CC21C (some centres not stated),11
